Like-named read-outs stand apart in the source and are kept apart here.
Experiments:
Sprague-Dawley rats = assay: Fertility and early embryonic development to implantation study in Sprague-Dawley rats (Example 5)
Description: This study design used naive animals of both sexes, incorporated treatment of both sexes, and provided for a recovery period for the treated males based on study outcome.
Male and female Sprague-Dawley (SD) rats were obtained from Charles River Laboratories, Raleigh, North Carolina (approximately 7 to 10 weeks of age). Using a standard, by weight, randomization procedure, 273 male and 273 female animals (weighing 229 to 497 g and 169 to 242 g, respectively, at randomization) were assigned to control, treatment, and toxicokinetic (TK) groups. The dose volume for each group was 10 mL/kg providing a dose concentration in mg/base/mL of one tenth the dose level). (In Table 24, T=Treated; U=Untreated).
Dosing began at 11 weeks of age and 70 days prior to pairing (with untreated females) for the treated males, and 14 days prior to pairing (with untreated males) for the treated females. Dosing of the males continued through the mating and postmating period to euthanasia, while dosing of the females continued through the mating period to GD 7. Females with no evidence of mating were dosed for 7 days following completion of the mating period. Males designated for the recovery phase were dosed for 70 days, and then received a 77 day recovery period.
Animals were observed cageside, for detailed clinical changes, body weights, food consumption, estrous cycle determinations, plasma analysis, sperm analysis, toxicokinetic analysis, and anatomical pathology including uterine and ovarian examinations.
Cageside observations were made at least twice daily.
Detailed clinical observations were made during treatment phases: for males, twice weekly during treatment (4 hours+/−1 hour on dosing days), and for females, daily during treatment (4 hours+/−1 hour on dosing days). During non-treatment phases (males and females), detailed clinical observations occurred weekly and also prior to the scheduled uterine examination (females) on GD 13.
For each endpoint, treatment groups were compared to the control group using the analysis outlined in Table 25. Data for some endpoints, as indicated, were transformed by an arcsin-square root transformation prior to conducting the specified analysis.

[1] = Toxicokinetic analysis in rat plasma (Example 5); type: in vivo; conditions: for Cmax / AUC(0-t): rat, plasma; for AUC(0-t): read-out: AUC0-24
Description: TK animals were dosed for 70 and 14 days for the males and females, respectively. Dosing of TK males and females was initiated simultaneously, continuing to euthanasia. Refrigerated daily aliquots of dosing formulations were brought to room temperature while continuously stirring for at least 30 minutes prior to dosing.

dogs = assay: General toxicology studies in dogs; type: in vivo, dog
[2] = Pharmacokinetics in chronic GVHD patients; type: in vivo, human
BCRP = target: T1, BCRP (Homo sapiens, UniProt Q9UNQ0); assay: Transporter systems in vitro: BCRP; type: in vitro ADME; conditions: clinically relevant concentrations
T1 sequence (Q9UNQ0 1-655): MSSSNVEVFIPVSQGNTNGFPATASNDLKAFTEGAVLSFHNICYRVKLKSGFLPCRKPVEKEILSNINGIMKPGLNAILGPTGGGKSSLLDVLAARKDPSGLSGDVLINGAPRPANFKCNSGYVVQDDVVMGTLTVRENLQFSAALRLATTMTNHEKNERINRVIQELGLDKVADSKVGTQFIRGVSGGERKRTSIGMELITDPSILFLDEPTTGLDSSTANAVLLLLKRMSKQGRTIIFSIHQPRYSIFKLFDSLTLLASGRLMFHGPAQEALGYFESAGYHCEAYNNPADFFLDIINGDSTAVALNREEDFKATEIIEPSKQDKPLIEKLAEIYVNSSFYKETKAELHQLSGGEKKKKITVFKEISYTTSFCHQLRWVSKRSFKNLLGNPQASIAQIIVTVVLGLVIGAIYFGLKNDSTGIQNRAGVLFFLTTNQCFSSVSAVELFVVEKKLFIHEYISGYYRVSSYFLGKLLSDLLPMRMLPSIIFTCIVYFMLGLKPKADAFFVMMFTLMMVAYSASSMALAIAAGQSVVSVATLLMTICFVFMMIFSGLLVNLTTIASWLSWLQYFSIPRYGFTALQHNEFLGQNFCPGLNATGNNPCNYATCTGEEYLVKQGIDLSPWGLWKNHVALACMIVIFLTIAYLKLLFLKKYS

CYP2C19 = CYP2C19 (Homo sapiens, UniProt P33261); assay: Enzyme systems in vitro: CYP2C19; type: in vitro ADME
CYP2C19, sequence (P33261 whole entry): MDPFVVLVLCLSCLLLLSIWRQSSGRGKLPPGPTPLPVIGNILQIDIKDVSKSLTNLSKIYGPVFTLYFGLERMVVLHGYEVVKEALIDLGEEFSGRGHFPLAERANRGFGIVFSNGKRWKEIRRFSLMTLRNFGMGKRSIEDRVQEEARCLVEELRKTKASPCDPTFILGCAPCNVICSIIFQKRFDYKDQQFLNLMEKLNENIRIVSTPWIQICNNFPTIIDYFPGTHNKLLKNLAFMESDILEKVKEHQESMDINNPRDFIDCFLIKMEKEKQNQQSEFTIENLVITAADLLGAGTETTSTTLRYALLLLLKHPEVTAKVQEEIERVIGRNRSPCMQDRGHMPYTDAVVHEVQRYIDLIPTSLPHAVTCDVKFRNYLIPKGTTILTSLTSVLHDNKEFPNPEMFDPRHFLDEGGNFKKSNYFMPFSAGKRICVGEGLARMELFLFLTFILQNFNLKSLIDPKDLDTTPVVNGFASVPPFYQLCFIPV

CYP2D6 = CYP2D6 (Homo sapiens, UniProt P10635); assay: Enzyme systems in vitro: CYP2D6; type: in vitro ADME
CYP2D6, sequence (P10635 whole entry): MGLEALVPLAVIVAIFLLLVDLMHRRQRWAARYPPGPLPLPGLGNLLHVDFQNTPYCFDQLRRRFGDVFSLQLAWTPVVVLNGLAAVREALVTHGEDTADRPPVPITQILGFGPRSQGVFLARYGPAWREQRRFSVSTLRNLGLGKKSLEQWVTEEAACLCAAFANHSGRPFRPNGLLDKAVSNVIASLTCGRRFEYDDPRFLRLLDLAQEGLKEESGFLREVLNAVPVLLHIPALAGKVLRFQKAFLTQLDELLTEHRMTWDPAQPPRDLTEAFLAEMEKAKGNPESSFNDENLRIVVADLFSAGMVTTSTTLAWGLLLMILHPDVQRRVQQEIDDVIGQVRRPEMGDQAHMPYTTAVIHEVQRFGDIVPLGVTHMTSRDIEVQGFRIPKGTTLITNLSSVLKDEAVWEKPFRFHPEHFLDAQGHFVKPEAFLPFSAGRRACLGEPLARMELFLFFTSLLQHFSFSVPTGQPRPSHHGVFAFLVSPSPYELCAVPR

bacterial = assay: in vitro bacterial mutagenicity (Ames) assay; type: cell-based
[3] = Group 14 (50 mg base/kg/day), Day 1

For CC(C)NC(=O)COc1cccc(-c2nc(Nc3ccc4[nH]ncc4c3)c3ccccc3n2)c1 [belumosudil, 2-{3-[4-(1H-indazol-5-ylamino)-2-quinazolinyl]phenoxy}-N-(propan-2-yl) acetamide], the “NOAEL for female reproductive performance and fertility” value (Sprague-Dawley rats; female rats) was 275 mg base/kg/day, the “dose with adverse findings in female rats (increased pre- or post-implantation loss, decreased number of viable embryos)” value (Sprague-Dawley rats; female, Sprague-Dawley, rat, in vivo) was 275 mg/kg/day and the “NOAEL for general toxicity endpoints” value (Sprague-Dawley rats; male and female rats) was 50 mg base/kg/day. The “NOAEL for male reproductive performance and fertility” value (Sprague-Dawley rats; male rats) was 150 mg base/kg/day, the “dose in male rats with abnormal sperm findings and testes/epididymis organ changes” value (Sprague-Dawley rats; male, Sprague-Dawley, rat, in vivo, po) was 275 mg/kg/day and the “reproductive and fertility indices, treated females” value (Sprague-Dawley rats; rat, in vivo) was “unaffected”. For the same molecule, the “NOAEL for ovarian and uterine parameters” value (Sprague-Dawley rats; treated females) was 150 mg base/kg/day, the AUC0-24 in rat plasma ([1]; Day 1, belumosudil 50 mg base/kg, F) was 49.2 µg·h/mL and the AUC0-24 in rat plasma ([1]; Day 1, belumosudil 50 mg base/kg, M) was 20.1 µg·h/mL. It also gave an AUC0-24 in rat plasma ([1]; Day 1, belumosudil 150 mg base/kg, F) of 95.7 µg·h/mL, an AUC0-24 in rat plasma ([1]; Day 1, belumosudil 150 mg base/kg, M) of 81.6 µg·h/mL and an AUC0-24 in rat plasma ([1]; Day 1, belumosudil 275 mg base/kg, F) of 122 µg·h/mL. It also gave an AUC0-24 in rat plasma ([1]; Day 1, belumosudil 275 mg base/kg, M) of 96.4 µg·h/mL, an AUC0-24 in rat plasma ([1]; Day 14, belumosudil 50 mg base/kg, F) of 26.2 µg·h/mL and an AUC0-24 in rat plasma ([1]; Day 14, belumosudil 150 mg base/kg, F) of 99.5 µg·h/mL. The AUC0-24 in rat plasma ([1]; Day 14, belumosudil 275 mg base/kg, F) was 209 µg·h/mL, the AUC0-24 in rat plasma ([1]; Day 70, belumosudil 50 mg base/kg, M) was 21.6 µg·h/mL and the AUC0-24 in rat plasma ([1]; Day 70, belumosudil 150 mg base/kg, M) was 70.1 µg·h/mL. For the same molecule, the AUC0-24 in rat plasma ([1]; Day 70, belumosudil 275 mg base/kg, M) was 191 µg·h/mL, the “sex difference in AUC0-24, females higher than males” value [1, 3] was roughly 2.44 fold and the “sex difference in Cmax, females higher than males” value [1, 3] was “approximately 2.10 fold”. The Cmax ([1]; female, Sprague-Dawley, oral, 150 mg base/kg) was 9.86 µg/mL, the AUC(0-t) ([1]; female, Sprague-Dawley, oral, 150 mg base/kg/day, females) was 99.5 µg·h/mL and the Cmax ([1]; female, Sprague-Dawley, po, 50 mg/kg/day) was 3.2 µg/mL. It also gave an AUC(0-t) ([1]; female, Sprague-Dawley, po, 50 mg/kg/day, 50 mg base/kg/day, females) of 26.2 µg·h/mL, a Cmax ([1]; female, Sprague-Dawley, po, 275 mg/kg/day, Day 14, belumosudil 275 mg base/kg, F) of 14.9 µg/mL and an AUC(0-t) ([1]; female, Sprague-Dawley, po, 275 mg/kg/day, 275 mg base/kg/day, females) of 209 µg·h/mL. It also gave a Cmax ([1]; female, po, 50 mg/kg/day) of 4.54 µg/mL, a Cmax ([1]; female, po, 150 mg/kg/day) of 5.67 µg/mL and a Cmax ([1]; female, po, 275 mg/kg/day, Day 1, belumosudil 275 mg base/kg, F) of 7.05 µg/mL. The Cmax ([1]; male, Sprague-Dawley, po, 50 mg/kg/day) was 2.48 µg/mL, the AUC(0-t) ([1]; male, Sprague-Dawley, po, 50 mg/kg/day, 50 mg base/kg/day, males) was 21.6 µg·h/mL and the Cmax ([1]; male, Sprague-Dawley, po, 150 mg/kg/day) was 10.1 µg/mL. The AUC(0-t) ([1]; male, Sprague-Dawley, po, 150 mg/kg/day, 150 mg base/kg/day, males) was 70.1 µg·h/mL, the Cmax ([1]; male, po, 50 mg/kg/day) was 2.17 µg/mL and the Cmax ([1]; male, po, 150 mg/kg/day) was 5.37 µg/mL. For the same molecule, the Cmax ([1]; male, po, 275 mg/kg/day, Day 1, belumosudil 275 mg base/kg, M) was 7.2 µg/mL, the Cmax ([1]; male, po, 275 mg/kg/day, Day 70, belumosudil 275 mg base/kg, M) was 20.4 µg/mL and the “dose with spermatozoa degeneration” value (dogs) was 35 mg/kg/day. For the same molecule, the “mean (% CV) steady-state AUC” value ([2]; 200 mg once daily) was 22700 (48%) h·ng/mL, the “mean (% CV) steady-state Cmax” value ([2]; 200 mg once daily) was 2390 (44%) ng/mL and the “pharmacokinetics with regard to age, sex, weight, or mild to moderate renal impairment” value ([2]; age 18 to 77 years, weight 38.6 to 143 kg) was “No clinically significant differences”. It also gave a Tmax ([2]; human, in vivo, oral, 200 mg once daily or twice daily, read-out: Median Tmax at steady state) of 1.26 to 2.53 h, a mean elimination half-life ([2]; patients, % CV 39%) of 19 h and a clearance ([2]; patients, % CV 46%) of 9.83 L/h. For the same molecule, the BCRP inhibition (BCRP) was “inhibits”, the CYP2C19 inhibition (CYP2C19) was “inhibitor” and the CYP2D6 inhibition (CYP2D6) was “inhibitor”. For the same molecule, the “genotoxicity, bacterial mutagenicity (Ames) assay” value (bacterial) was “not genotoxic”.

— patent US20240277713A1 (Kadmon Corporation, LLC, priority 2022, published 2024)
